Key:
[1] = Acute oral toxicity, mice
[2] = system: P. cynomolgi; assay: Combination drug therapy including chloroquine as suppressive adjuvant, radical curative studies; type: in vivo, P. cynomolgi in rhesus monkeys; conditions: for Activity at 3.5 mg/kg (×1): primaquine with chloroquine, compound 1 without chloroquine; for Fully curative dose level: single dose, with chloroquine
[3] = Acute oral toxicity, guinea pigs
[4] = system: Plasmodium berghei; assay: Blood schizonticidal (suppressive) test, Rane mouse test, P. berghei; type: in vivo, Plasmodium berghei KBG 173 in ICR/HA Swiss mice
Source text: Blood Schizonticidal Test (Mouse), University of Miami, Rane (Suppressive)
This system is based on comparisons of responses to test compounds by Plasmodium berghei KBG 173 malaria in mice as expressed in mean survival times and the mean survival times of untreated controls. Thus, compounds noted as active produce increases in the survival times of the treated animals that are significant when compared with the survival times of untreated controls. Since an established disease is less sensitive to treatment than a disease in the early stages of development, treatment is withheld until the parasitemia is relatively high in order to insure a more reliable assay of activity and the selection of appropriate compounds for intensive preclinical studies.
Utilizing young ICR/HA Swiss mice and a standard inoculum of Plasmodium berghei KBG 173, it is possible to produce a uniform disease fatal to 100% of untreated animals within 6 to 8 days with a mean survival time of 6.2 days. Test animals weigh from 18 to 22 grams but weight variations in any given experimental or control group are confined to 2-3 grams. All animals in any given test are approximately of the same age. Animals on test are housed in metal-topped plastic cages, given a standard laboratory diet and water ad libitum.
Test animals receive an intraperitoneal injection of 0.5 ml of 1:100 dilution of heparinized heart's blood with a minimum of 90% parasitized cells (4×10^7 cells), drawn from donor mice infected one week earlier with Plasmodium berghei. The donor stran is maintained by weekly passages in separate groups of mice inoculated with a 0.5 ml of 1:500 dilution of heparinized heart's blood.
Test compounds are administered after dissolution or suspension in peanut oil. A single dose is given subcutaneously 72 hours after the mice are infected with Plasmodium berghei. At this time a 10-15 percent parasitemia has developed; the disease is well established but has not produced sufficient debility to alter the response of the host to toxic effects of the drug on test. Since treatment is withheld for three days to permit the infection to become well established and death occurs in untreated controls within 6-8 days, it is believed that this system presents a candidate compound with the maximum challenge. In order to check factors such as changes in the infectivity of Plasmodium berghei or in the susceptibility of the host or to detect technical errors, a group of infected animals treated with pyrimethamine at dose levels producing definite increases in survival time is included as a positive control in every experiment.
In each experiment test compounds are administered in graded doses. […] However, if an active drug is toxic for the host, its toxicity may become a limiting factor; continued increases in dose levels also increase the toxic effects and may result in the diminution of survival times. Deaths prior to the sixth day, when untreated controls begin to die, are regarded as non-parasitic and become the basis for toxicity evaluations. Treated animals are kept under observation for 60 days. Survivors at the end of this period of time are considered as cured.
An increase of 100% in mean survival time is considered the minimum effective response for a candidate compound. In calculating mean survival time, toxic deaths and 60 day survivors are not included.
The antimalarial activity data acquired by the two test procedures described above are listed in Tables 2 and 3 for the compounds of this invention. In Table 4, the most promising compound of the series, compound 1, is compared directly with primaquine together with some additional test data for compound 1 compared to primaquine. In all the work reported herein primaquine is used in the form of the diphosphate salt. The test data are expressed in the form of the number of cures at a given dose level. […]

[5] = system: P. cynomolgi; assay: SEATO suppressive test, P. cynomolgi, rhesus monkey (parasitized blood inoculation, no chloroquine); type: in vivo, P. cynomolgi in rhesus monkey
Method: Equally significant is the suppressive activity comparison (Part A-2) in the Rhesus monkey. This test differs from the SEATO radical curative test primarily in that parasitemia is induced by intravenous inoculation of parasitized blood (rather than sporozoites) and that chloroquine is not co-administered with the test drug. […] On the other hand, compound 1 is curative at doses down to 1.0 mg/kg/day.

[6] = 0.875 mg/kg base × 1, oral, without chloroquine
[7] = 1.75 mg/kg base × 1, oral, plus chloroquine
[8] = 3.5 mg/kg base × 1, oral, without chloroquine
[9] = 14 mg/kg base × 1, oral, without chloroquine
[10] = 160 mg/kg × 1, s.c., five mice, Table III
[11] = 320 mg/kg × 1, s.c., five mice, Table III
[12] = 640 mg/kg × 1, s.c., five mice, Table III
[13] = 3.5 mg/kg base × 1, oral, plus chloroquine
[14] = 7 mg/kg base × 1, oral, plus chloroquine

In the case of COc1cc(NC(C)CCCN)c2nccc(C)c2c1Oc1cccc(C(F)(F)F)c1.O=C(O)CCC(=O)O (centres unmarked) [Compound 1, 8-(4-Amino-1-methylbutylamino)-6-methoxy-4-methyl-5-(3-trifluoromethylphenoxy)quinoline Succinate], the “LD50 ratio Compound 1/Primaquine” value ([1]; mice, male) is reported as 1.59, the Relapse ([2]; 0.4375 mg/kg base × 1, oral, plus chloroquine) is reported as 4R and the Relapse ([2]; 0.4375 mg/kg base × 1, oral, without chloroquine) is reported as 4R. For the same molecule, the Cure ([2]; 0.875 mg/kg base × 1, oral, plus chloroquine) was 4C, the Relapse [2, 6] was 1R and the Suppressive failure [2, 6] was 3SF. It also gave a Cure [2, 7] of 2C, a Suppressive failure ([2]; 1.75 mg/kg base × 1, oral, without chloroquine) of 4SF and a Cure [2, 8] of 1C. For the same molecule, the Suppressive failure [2, 8] was 1SF, the Cure ([2]; 7 mg/kg base × 1, oral, without chloroquine) was 2C and the Cure [2, 9] was 1C. For the same molecule, the Suppressive failure [2, 9] was 1SF, the “Activity at 3.5 mg/kg (×1)” value [2] was “equally active” and the “Fully curative dose level” value [2] was 0.875 mg/kg. For the same molecule, the “Molar Primaquine Index” value ([2]; with chloroquine co-administration) was 19, the “LD50 ratio Compound 1/Primaquine” value ([3]; guinea pigs, male) was 3.22 and the Extension of survival ([4]; 5 mg/kg salt, s.c., Table IV A-1) was 7 days. For the same molecule, the “Cures (60 days survival)” value ([4]; 5 mg/kg × 1, s.c., five mice, Table III) was 1C, the “Cures (60 days survival)” value ([4]; 10 mg/kg × 1, s.c., five mice, Table III) was 3C and the “Cures (60 days survival)” value ([4]; 20 mg/kg × 1, s.c., five mice, Table III) was 5C. The “Cures (60 days survival)” value ([4]; 40 mg/kg × 1, s.c., five mice, Table III) was 5C, the “Cures (60 days survival)” value ([4]; 80 mg/kg × 1, s.c., five mice, Table III) was 5C and the “Cures (60 days survival)” value [4, 10] was 5C. The “Cures (60 days survival)” value [4, 11] was 5C, the Toxic deaths ([4]; 640 mg/kg salt, s.c., Table IV A-1) was 4T and the “Cures (60 days survival)” value [4, 12] was 1C. It also gave a Toxic [4, 12] of 4T, a minimal effective dose ([4]; Plasmodium berghei, sc, single dose, read-out: Curative dose, suppressive test) of 10 mg/kg and a minimal effective dose ([5]; Plasmodium cynomolgi, in Macaca mulatta, po, curative at doses down to, read-out: Lowest curative dose, suppressive test in rhesus) of 1 mg/kg/day.

In the case of COc1cc(NC(C)CCCN)c2ncccc2c1 (centres unmarked) [Primaquine Diphosphate, 8-((4-amino-1-methylbutyl)amino)-6-methoxy-quinoline, reference compound], the LD50 ([1]; mouse, in vivo, po) is reported as 148 mg/kg, the Relapse [2, 7] is reported as 2R and the Cure [2, 13] is reported as 2C. The Relapse [2, 13] was 1R, the Suppressive failure [2, 13] was 1SF and the Cure [2, 14] was 2C. It also gave a Relapse [2, 14] of 1R, a Suppressive failure [2, 14] of 1SF and a Cure ([2]; 14 mg/kg base × 1, oral, plus chloroquine) of 2C. The “Activity at 3.5 mg/kg (×1)” value [2] was “effective although a relapse was observed in one of the four animals”, the “Fully curative dose level” value [2] was 14 mg/kg and the LD50 ([3]; guinea pig, in vivo, po) was 54 mg/kg. The “Extension of survival relative to controls” value ([4]; 80 mg/kg × 1, s.c., Table III) was 9 days, the Extension of survival ([4]; 160 mg/kg salt, s.c., Table IV A-1) was 9 days and the “Extension of survival relative to controls” value ([4]; 160 mg/kg × 1, s.c., Table III) was 9 days. The “Suppressive activity (active/inactive)” value [4, 10] was “A (Active, 7 Days or more estension of survival relative to controls.)”, the Toxic [4, 10] was 2T and the Toxic [4, 11] was 5T. The Toxic [4, 12] was 5T, the “Cures, Rane mouse test” value ([4]; all doses, s.c., Table IV A-1) was “No Cures” and the “Toxicity and curative activity, Rane mouse test” value ([4]; any dose level) was “toxic and non-curative at any dose level”. For the same molecule, the “Cures, suppressive test in rhesus” value ([5]; all doses, oral, × 7 days) was “No Cures” and the “Suppressive activity in the rhesus” value ([5]; in words) was “failed to clear the blood schizonts completely”.

Source: patent US4431807A, “4-Methyl-5-(unsubstituted and substituted phenoxy)-6-methoxy-8-(aminoalkylamino)quinolines” (priority 1981, dated 1984)
